Assay results published in PubChem BioAssay AID1259407 (Chemical Carcinogenesis Research Information System (CCRIS), 2018).
Activity calls are given as the source filed them. How the calls were made is not given here.

Test system: CCRIS mutagenicity, Ames/micronucleus/aberration tests
Experiment: CCRIS mutagenicity studies

With `CCO[Si](C)(C)OCC` the mutagenic call (Test System: AMES SALMONELLA TYPHIMURIUM, Strain/Indicator: TA98, Metabolic Activation: NONE, Method: STANDARD PLATE) was “inactive; negative”, the mutagenic call (Test System: AMES SALMONELLA TYPHIMURIUM, Strain/Indicator: TA98, Metabolic Activation: RAT LIVER S-9, AROCLOR 1254, Method: STANDARD PLATE) was “inactive; negative” and the mutagenic call (Test System: AMES SALMONELLA TYPHIMURIUM, Strain/Indicator: TA100, Metabolic Activation: NONE, Method: STANDARD PLATE) was “inactive; negative”. The mutagenic call (Test System: AMES SALMONELLA TYPHIMURIUM, Strain/Indicator: TA100, Metabolic Activation: RAT LIVER S-9, AROCLOR 1254, Method: STANDARD PLATE) was “inactive; negative”, the mutagenic call (Test System: AMES SALMONELLA TYPHIMURIUM, Strain/Indicator: TA1535, Metabolic Activation: NONE, Method: STANDARD PLATE) was “inactive; negative” and the mutagenic call (Test System: AMES SALMONELLA TYPHIMURIUM, Strain/Indicator: TA1535, Metabolic Activation: RAT LIVER S-9, AROCLOR 1254, Method: STANDARD PLATE) was “inactive; negative”. The mutagenic call (Test System: AMES SALMONELLA TYPHIMURIUM, Strain/Indicator: TA1537, Metabolic Activation: NONE, Method: STANDARD PLATE) was “inactive; negative”, the mutagenic call (Test System: AMES SALMONELLA TYPHIMURIUM, Strain/Indicator: TA1537, Metabolic Activation: RAT LIVER S-9, AROCLOR 1254, Method: STANDARD PLATE) was “inactive; negative” and the mutagenic call (Test System: AMES SALMONELLA TYPHIMURIUM, Strain/Indicator: TA1538, Metabolic Activation: NONE, Method: STANDARD PLATE) was “inactive; negative”. For the same molecule, the mutagenic call (Test System: AMES SALMONELLA TYPHIMURIUM, Strain/Indicator: TA1538, Metabolic Activation: RAT LIVER S-9, AROCLOR 1254, Method: STANDARD PLATE) was “inactive; negative”, the mutagenic call (Test System: E. COLI, Strain/Indicator: P3078 POLA, Metabolic Activation: NONE, Method: SPOT TEST) was “inactive; negative” and the mutagenic call (Test System: E. COLI, Strain/Indicator: P3078 POLA, Metabolic Activation: RAT LIVER S-9, AROCLOR 1254, Method: SPOT TEST) was “inactive; negative”. The mutagenic call (Test System: E. COLI, Strain/Indicator: W3110, Metabolic Activation: NONE, Method: SPOT TEST) was “inactive; negative”, the mutagenic call (Test System: E. COLI, Strain/Indicator: W3110, Metabolic Activation: RAT LIVER S-9, AROCLOR 1254, Method: SPOT TEST) was “inactive; negative” and the mutagenic call (Test System: MOUSE LYMPHOMA, Strain/Indicator: L5178Y (TK+/TK-), Metabolic Activation: NONE, Method: SUSPENSION/PLATE) was “inactive; negative”. For the same molecule, the mutagenic call (Test System: MOUSE LYMPHOMA, Strain/Indicator: L5178Y (TK+/TK-), Metabolic Activation: RAT, LIVER, S-9, Method: SUSPENSION/PLATE) was “inactive; negative”.

`O.O.O.O.O.O.[Cl-].[Cl-].[Co+2]` was tested, and the mutagenic call (End Point: IN VIVO CHROMOSOMAL ABERRATIONS, Test System: BONE MARROW CELLS, Species: MOUSE, Strain/Sex: SWISS ALBINO/MALE, Route: ORAL) was “active; positive (structural and ploidy changes)”, the mutagenic call (Test System: CHINESE HAMSTER V-79, Strain/Indicator: SP5 V-79 (HPRT)/6-THIOGUANINE, Metabolic Activation: NONE, Method: STANDARD PLATE) was “inactive; negative” and the mutagenic call (Test System: CHINESE HAMSTER V-79, Strain/Indicator: SPD8 V-79 (HPRT)/6-THIOGUANINE, Metabolic Activation: NONE, Method: STANDARD PLATE) was “active; positive”.

In the case of `OC[C@H]1O[C@@H](Oc2ccc(O)cc2)[C@H](O)[C@@H](O)[C@@H]1O`, the mutagenic call (Test System: Chinese hamster lung cells, Strain/Indicator: CHL (HPRT)/6-Thioguanine, Metabolic Activation: None, Method: Standard Plate) is reported as “inactive; negative”.

With `CC(C)(C)C1=CC(=O)C=C(C2=CC(=O)C=C(C(C)(C)C)C2=O)C1=O` the mutagenic call (Test System: AMES SALMONELLA TYPHIMURIUM, Strain/Indicator: TA98, Metabolic Activation: NONE, Method: PREINCUBATION) was “active; positive” and the mutagenic call (Test System: AMES SALMONELLA TYPHIMURIUM, Strain/Indicator: TA100, Metabolic Activation: NONE, Method: PREINCUBATION) was “active; positive”.
